Values joined by “and” are separate entries in the source; they are usually repeats but may differ in a detail not shown here. Equal values may be shown once.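 48-hour exposure; five concentrations; linearly interpolated endpoints. Here, GI50 denotes the concentration required for 50% inhibition of growth. TGI is the concentration that stops growth completely.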
Columns and labels:
Test in all cases: NCI tumour cell line growth inhibition, 48 h
A549 NSCLC = system: A549 NSCLC
HT29 colon = system: HT29 colon
MCF7 breast = system: MCF7 breast
SK-MEL-2 melanoma = system: SK-MEL-2 melanoma
SK-MEL-28 melanoma = system: SK-MEL-28 melanoma
TK-10 renal = system: TK-10 renal
U251 CNS = system: U251 CNS
UACC-62 melanoma = system: UACC-62 melanoma

| Compound | GI50 (A549 NSCLC) | TGI (A549 NSCLC) | GI50 (HT29 colon) | TGI (HT29 colon) | GI50 (MCF7 breast) | TGI (MCF7 breast) | TGI (SK-MEL-2 melanoma) | GI50 (SK-MEL-28 melanoma) | TGI (SK-MEL-28 melanoma) | GI50 (TK-10 renal) | TGI (TK-10 renal) | GI50 (U251 CNS) | GI50 (UACC-62 melanoma) | TGI (UACC-62 melanoma) | GI50 (SK-MEL-2 melanoma) | TGI (U251 CNS) |
| --- | --- | --- | --- | --- | --- | --- | --- | --- | --- | --- | --- | --- | --- | --- | --- | --- |
| CC[C@@]1(O)C(=O)OCc2c1cc1n(c2=O)Cc2c-1nc1cc3c(cc1c2C)OCO3 | < 0.0001 µM | 0.0737 µM | < 0.0001 µM | > 100 µM | < 0.0001 µM | 0.299 µM | 0.0271 µM | 0.0395 µM and 0.0765 µM | > 100 µM | 0.043 µM and 0.0311 µM | 3.56 µM | < 0.0001 µM | < 0.0001 µM | 0.0143 µM |  |  |
| CCN(CC)CCNc1cc(-c2cccc(OC(F)(F)F)c2)nc2ccc(N3CCCC3)cc12 | 1.71 µM and 1.73 µM and 2.55 µM | 3.35 µM and 3.29 µM and 7.3 µM | 1.7 µM and 1.6 µM and 1.76 µM | 3.47 µM and 3.33 µM and 3.73 µM | 1.64 µM and 1.45 µM and 1.76 µM | 3.44 µM and 2.9 µM and 3.62 µM | 3.3 µM and 3.49 µM and 3.61 µM | 1.66 µM and 1.9 µM and 1.74 µM | 3.16 µM and 3.38 µM and 3.17 µM | 2.06 µM and 1.87 µM and 2.31 µM | 4.5 µM and 3.49 µM and 5.73 µM | 1.54 µM and 1.55 µM and 1.71 µM | 1.81 µM and 1.82 µM and 1.79 µM | 3.47 µM and 3.28 µM and 3.51 µM | 1.61 µM and 1.87 µM and 1.9 µM | 3.1 µM and 2.95 µM and 3.35 µM |
| c1ccc(CN=C(NCc2ccccc2)NCc2ccccc2)cc1 | 11.2 µM | 25.3 µM | 5.58 µM | 19.8 µM | 6.37 µM | 19.6 µM |  | 14.8 µM | 29.2 µM | 10.7 µM | 27.3 µM | 10.2 µM | 10.1 µM | 22.6 µM |  | 23.5 µM |
| COc1cccc2c1c(C1=C(c3cn(C)c4ccccc34)C(=O)NC1=O)cn2C | > 25 µM | > 25 µM | > 25 µM | > 25 µM | > 25 µM | > 25 µM | > 25 µM | > 25 µM | > 25 µM | > 25 µM | > 25 µM | > 25 µM | > 25 µM | > 25 µM | > 25 µM | > 25 µM |
| Cc1ncsc1-c1ccc(CNC(=O)[C@@H]2C[C@@H](O)CN2C(=O)[C@@H](NC(=O)C2(C#N)CC2)C(C)(C)C)cc1 | > 100 µM | > 100 µM | > 100 µM | > 100 µM | > 100 µM | > 100 µM | > 100 µM | > 100 µM | > 100 µM | > 100 µM | > 100 µM | > 100 µM | 62.6 µM | > 100 µM | > 100 µM | > 100 µM |
| N#CC1=C(N)NC(=S)NC12Nc1ccccc1N2 | 37.6 µM | > 100 µM |  |  | 22.7 µM | > 100 µM | > 100 µM | 47.4 µM | > 100 µM | 46.4 µM | > 100 µM | > 100 µM | 12.5 µM | 57.5 µM | 18.6 µM | > 100 µM |
| O=C1OC(c2ccccc2)(c2cc(Br)c(O)c(Br)c2)c2ccccc21 (stereo not drawn) | 31.3 µM | > 100 µM |  |  | 23.8 µM | 78.7 µM |  | 21.1 µM | 49.2 µM |  |  | 16.9 µM | 15.6 µM | 31.7 µM |  | 38 µM |
| C=CN(C)S(C)(=O)=O | > 100 µM | > 100 µM | > 100 µM | > 100 µM | > 100 µM | > 100 µM | > 100 µM | > 100 µM | > 100 µM |  |  | > 100 µM | > 100 µM | > 100 µM | > 100 µM | > 100 µM |
| CCc1ccc2c(c1)N(CCO)C1=C(C(=O)OC1)C2c1cccc(Cl)c1 (stereo not drawn) | 0.784 µM | 18.6 µM | 0.345 µM | 11.1 µM |  |  | 16.2 µM | 0.613 µM | 17.5 µM | 6.69 µM | 28.8 µM | 0.499 µM | 0.537 µM | 18.5 µM | 0.371 µM | 15.5 µM |
| COc1ccc(-c2nc(N3CCN(C(=O)C4CCCCC4)CC3)c3c4c(sc3n2)CCCC4)cc1 | 50.1 µM | > 100 µM | > 100 µM | > 100 µM | 82.9 µM | > 100 µM |  | > 100 µM | > 100 µM | 34.4 µM | 90.8 µM | 37.9 µM | 40.8 µM | > 100 µM |  | > 100 µM |
| OCC1OC(n2cnc3c(Cl)nc(Cl)cc32)C(O)C1O (stereo not drawn) | > 100 µM | > 100 µM | > 100 µM | > 100 µM | > 100 µM | > 100 µM |  | > 100 µM | > 100 µM | > 100 µM | > 100 µM |  | > 100 µM | > 100 µM |  |  |
| CN(C)CCOC(c1ccccc1)c1ccccc1 | 35.9 µM | 51.7 µM and > 100 µM | 23.8 µM | 45.5 µM and > 100 µM | 36.5 µM | 54 µM and > 100 µM | 51.6 µM and > 100 µM | 18.1 µM | 35.3 µM and > 100 µM | 45.9 µM | 59.7 µM and > 100 µM |  | 32.7 µM | 48.4 µM | 35.5 µM |  |
